From US7189701B1, “Tetrapeptide stimulating functional activity of neurons pharmacological agent based thereon and method of use thereof” (Sankt-Petersburgskaya Obschestvennaya Organizatsiya …, priority 1999, dated 2007)
Residues, ends and D or L forms follow the SMILES beside them.

Test system: cerebral cortex explants
Test: Development of cerebral cortex explants (area index)
Assay type: cell-based, chicken embryos
Protocol: The experiments were carried out on 73 cerebral cortex fragments of 10–11 day old chicken embryos. Culture medium for the explants comprised 35% Eagle's solution, 25% foetal calf serum, 35% Henks' solution, 5% chicken embryonic extract. The medium was also added glucose (0.6%), insulin (0.5 IU/ml), penicillin (100 IU/ml), glutamine (2 mM). The cerebral cortex fragments were placed in the said medium and cultivated in Petri dishes in a thermostat at 36.7° C. for 2 days. L-Ala-L-Glu-L-Asp-L-Pro (SEQ ID NO:1) tetrapeptide and Cerebrolysin in concentrations 0.5, 1, 2, 20, 50, 100, 200, 400, 800, 1000 ng/ml were added into the experimental medium. Area index (AI) served as a criterion of biological activity and reflected the ratio of the entire explant area including the growth zone to the initial area of the cortex fragment. Student's t-criterion was applied to assess the significance of differences between the compared mean AI values. AI values were expressed percent. The control AI value was taken for 100%.
The growth zone of the control cortex explants included short axons, neuroglia cells migrating to the periphery and fibroblast-like cells.
Following series of experiments were performed to study the direct effect of the drugs on the cerebral cortex fragments.
Cerebrolysin in various concentrations was added to the culture medium of the cerebral cortex explants of the chicken embryos. […]

C[C@H](N)C(=O)N[C@@H](CCC(=O)O)C(=O)N[C@@H](CC(=O)O)C(=O)N1CCC[C@H]1C(=O)O [L-Ala-L-Glu-L-Asp-L-Pro tetrapeptide, L-Alanyl-L-Glutamyl-L-Aspartyl-L-Proline] (H-AEDP-OH)
increase in the explant area index (AI) in comparison with control (20 ng/ml): 40±7%
concentration stimulating cultivated cortical fragments (effective concentration): 20 ng/mL
